Results reported in ChEMBL document CHEMBL1159331, “Cytotoxic prenylated xanthones and the unusual compounds anthraquinobenzophenones from Cratoxylum sumatranum” (J Nat Prod, 2002).
In brackets after ≈: the same amount, converted by molar mass. Activity calls are given as the source filed them. The calls are words filed in the database; no cut-off is given here.

test system: P388; test: In vivo antitumor activity against mouse P388 cells at 75 mg/kg, ip; assay type: functional, organism-based; parameters: dose 75 mg/kg

With `COc1cc(OC)c2oc3cc(O)c(CC=C(C)C)c(O)c3c(=O)c2c1CC=C(C)C` [CRATOXYARBORENONE C] the Activity was “inactive”.

test system: KB; test: Cytotoxicity against human KB cells by MTT assay; assay type: functional, cell-based

In the case of `COc1cc2c(c(O)c1C(CC(C)C)c1c(OC/C=C(\C)CCC=C(C)C)cc(O)c(C(=O)c3ccccc3)c1O)C(=O)c1c(O)cc(C)cc1C2=O` (stereo not given), the Activity is reported as “inactive”.
For `COc1cc2c(c(O)c1C(CC(C)CCC=C(C)C)c1c(OC/C=C(\C)CCC=C(C)C)cc(O)c(C(=O)c3ccccc3)c1O)C(=O)c1c(O)cc(C)cc1C2=O` (stereo not given), the Activity was “inactive”.

Compared with `CC(C)=CCC/C(C)=C/Cc1c(O)cc(O)c2oc3cc(O)c(CC=C(C)C)c(O)c3c(=O)c12` [CRATOXYARBORENONE A], `CC(C)=CCc1c(O)cc2oc3c(O)cc(O)c(CC=C(C)C)c3c(=O)c2c1O` [CRATOXYARBORENONE B] is 4.3-fold lower in EC50: 4.3 µg/mL (≈ 9.26 µM) for the first, 1 µg/mL (≈ 2.52 µM) for the second.

First: COc1cc(OC)c2oc3cc(O)c(CC=C(C)C)c(O)c3c(=O)c2c1CC=C(C)C [CRATOXYARBORENONE C]
Second: COc1c(O)cc2c(=O)c3c(O)cc(O)c(CC=C(C)C)c3oc2c1CC=C(C)C [CRATOXYARBORENONE E]
The EC50 of the first is 2.9-fold lower: 1.5 µg/mL (≈ 3.53 µM) for the first, 4.3 µg/mL (≈ 10.5 µM) for the second.

First: C=C(C)C1Cc2c(cc3oc4c(O)c(O)c(O)c(CC=C(C)C)c4c(=O)c3c2O)O1 (stereo not given) [CRATOXYARBORENONE D]
Second: COc1ccc(O)c2c(=O)c3ccc(O)cc3oc12 [CRATOXYARBORENONE F]
The EC50 of the first is 2.4-fold lower: 1.7 µg/mL (≈ 4.14 µM) for the first, 4.1 µg/mL (≈ 15.9 µM) for the second.

`COc1cc2cc3c(c(O)c2c2c1C=CC(C)(C)O2)C(=O)CC(C)(O)C3` (stereo not given) [VISMIONE B] gave an EC50 of 1.3 µg/mL (≈ 3.67 µM).
